Results taken from article PMC11233931, “Remodeling tumor‐associated macrophage for anti‐cancer effects by rational design of irreversible inhibition of mitogen‐activated protein kinase‐activated protein kinase 2” (MedComm, 2024).

Tests used:
Test in all cases: Eurofins kinase selectivity profile against 380 other human recombinant kinases (Table S2)
Format in all cases: biochemical
[1] = target: T1, 380 human recombinant protein kinases (Homo sapiens, UniProt P16234); settings: PDGFRα(h), read-out: Inhibition rate
T1 construct: purchased Eurofins (Celle Lévescault)
T1 sequence (P16234 24-1089): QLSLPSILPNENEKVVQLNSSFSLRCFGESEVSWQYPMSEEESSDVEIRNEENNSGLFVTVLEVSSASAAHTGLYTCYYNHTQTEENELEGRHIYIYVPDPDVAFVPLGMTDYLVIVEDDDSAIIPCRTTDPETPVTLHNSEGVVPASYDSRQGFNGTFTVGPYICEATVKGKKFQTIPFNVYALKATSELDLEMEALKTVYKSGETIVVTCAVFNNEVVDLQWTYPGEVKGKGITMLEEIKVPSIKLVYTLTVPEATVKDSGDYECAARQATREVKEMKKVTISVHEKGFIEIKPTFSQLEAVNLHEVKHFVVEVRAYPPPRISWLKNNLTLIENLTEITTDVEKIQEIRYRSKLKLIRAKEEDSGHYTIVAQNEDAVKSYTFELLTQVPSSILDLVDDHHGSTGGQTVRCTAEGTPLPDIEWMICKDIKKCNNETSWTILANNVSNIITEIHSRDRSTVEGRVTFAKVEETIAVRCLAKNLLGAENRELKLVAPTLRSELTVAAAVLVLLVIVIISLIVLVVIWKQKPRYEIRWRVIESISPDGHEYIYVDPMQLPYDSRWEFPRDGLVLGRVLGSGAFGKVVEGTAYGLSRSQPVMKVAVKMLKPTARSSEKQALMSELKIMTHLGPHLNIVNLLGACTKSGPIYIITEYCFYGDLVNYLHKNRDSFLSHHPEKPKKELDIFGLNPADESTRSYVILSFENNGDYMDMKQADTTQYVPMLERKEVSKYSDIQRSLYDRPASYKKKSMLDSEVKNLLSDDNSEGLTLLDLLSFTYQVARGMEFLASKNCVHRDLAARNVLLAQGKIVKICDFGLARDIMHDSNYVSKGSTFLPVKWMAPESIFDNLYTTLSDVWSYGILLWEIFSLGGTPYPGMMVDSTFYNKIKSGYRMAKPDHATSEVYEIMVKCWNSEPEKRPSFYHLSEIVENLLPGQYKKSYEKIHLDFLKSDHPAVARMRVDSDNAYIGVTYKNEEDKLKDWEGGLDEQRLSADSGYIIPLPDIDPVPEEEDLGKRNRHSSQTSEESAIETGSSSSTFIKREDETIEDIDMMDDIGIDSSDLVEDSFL
Outline: (§1)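 Commercial selectivity screen of the test compound against a panel of 380 human recombinant protein kinases, run by an outside contractor at several compound concentrations to check whether its potency was specific for MK2.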

[2] = target: T2, 380 human recombinant protein kinases (Homo sapiens, UniProt O00329); settings: PI3 Kinase (p110δ/p85α)(h), read-out: Inhibition rate (%)
T2 construct: purchased Eurofins (Celle Lévescault)
T2 sequence (O00329 1-1044): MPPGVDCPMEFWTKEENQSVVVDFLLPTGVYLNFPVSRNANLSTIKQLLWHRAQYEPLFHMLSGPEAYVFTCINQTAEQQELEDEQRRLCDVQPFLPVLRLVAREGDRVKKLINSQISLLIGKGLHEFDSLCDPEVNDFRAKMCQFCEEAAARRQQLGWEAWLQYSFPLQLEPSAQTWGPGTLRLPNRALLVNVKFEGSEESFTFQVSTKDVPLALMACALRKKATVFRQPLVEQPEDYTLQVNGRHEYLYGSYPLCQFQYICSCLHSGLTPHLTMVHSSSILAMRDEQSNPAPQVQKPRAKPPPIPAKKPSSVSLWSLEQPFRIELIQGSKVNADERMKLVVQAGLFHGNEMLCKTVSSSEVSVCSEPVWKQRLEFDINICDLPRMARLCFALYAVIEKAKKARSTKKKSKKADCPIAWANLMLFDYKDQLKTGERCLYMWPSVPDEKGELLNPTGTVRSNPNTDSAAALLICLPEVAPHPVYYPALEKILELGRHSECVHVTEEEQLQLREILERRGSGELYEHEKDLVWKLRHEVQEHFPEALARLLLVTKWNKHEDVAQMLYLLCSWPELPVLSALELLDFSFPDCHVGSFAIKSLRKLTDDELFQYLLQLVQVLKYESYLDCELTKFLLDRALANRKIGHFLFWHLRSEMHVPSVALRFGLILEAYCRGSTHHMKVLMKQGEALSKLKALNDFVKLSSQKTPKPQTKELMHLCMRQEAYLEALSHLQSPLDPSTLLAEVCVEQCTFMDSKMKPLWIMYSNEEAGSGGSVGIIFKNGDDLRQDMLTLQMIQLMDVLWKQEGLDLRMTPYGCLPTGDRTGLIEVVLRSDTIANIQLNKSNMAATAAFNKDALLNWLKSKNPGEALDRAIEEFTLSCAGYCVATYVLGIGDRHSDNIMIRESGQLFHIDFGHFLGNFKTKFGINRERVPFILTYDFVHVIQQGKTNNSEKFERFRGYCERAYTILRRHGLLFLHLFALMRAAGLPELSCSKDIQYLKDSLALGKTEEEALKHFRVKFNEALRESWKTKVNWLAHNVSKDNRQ
Outline: as §1

[3] = target: T3, 380 human recombinant protein kinases (Homo sapiens, UniProt Q9Y2U5); settings: MEKK2(h), read-out: Inhibition rate
T3 construct: purchased Eurofins (Celle Lévescault)
T3 sequence (Q9Y2U5 1-619): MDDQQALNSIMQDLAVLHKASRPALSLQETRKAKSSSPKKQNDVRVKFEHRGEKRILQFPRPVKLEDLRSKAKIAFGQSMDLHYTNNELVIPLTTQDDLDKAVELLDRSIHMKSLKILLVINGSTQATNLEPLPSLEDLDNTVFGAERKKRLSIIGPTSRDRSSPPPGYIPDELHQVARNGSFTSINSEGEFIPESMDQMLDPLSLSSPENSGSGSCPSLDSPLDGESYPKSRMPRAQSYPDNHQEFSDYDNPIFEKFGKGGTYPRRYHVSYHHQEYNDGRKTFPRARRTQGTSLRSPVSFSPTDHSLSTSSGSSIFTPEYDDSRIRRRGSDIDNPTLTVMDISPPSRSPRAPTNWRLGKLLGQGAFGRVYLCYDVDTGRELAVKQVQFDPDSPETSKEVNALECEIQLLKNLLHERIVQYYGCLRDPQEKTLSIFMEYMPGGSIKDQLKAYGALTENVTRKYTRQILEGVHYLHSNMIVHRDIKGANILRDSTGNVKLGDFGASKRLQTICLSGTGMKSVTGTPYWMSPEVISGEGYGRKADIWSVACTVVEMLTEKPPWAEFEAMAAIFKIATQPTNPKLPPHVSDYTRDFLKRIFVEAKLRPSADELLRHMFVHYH
Outline: as §1

What does the source list for C=CC(=O)Nc1cc(-c2cc(-c3cc4c([nH]3)CCNC4=O)ccn2)ccc1OC(F)(F)F [compound 11]?
inhibition at 0.01 µM ([1]; 10 nM): -5%; inhibition at 0.1 µM ([1]; 100 nM): -3%; inhibition at 1 µM ([1]; 1000 nM): -2%; inhibition at 0.01 µM ([2]; 10 nM): -3%; inhibition at 0.1 µM ([2]; 100 nM): -1%; inhibition at 1 µM ([2]; 1000 nM): 2%; inhibition at 0.01 µM ([3]; 10 nM): -3%; inhibition at 0.1 µM ([3]; 100 nM): 2%; inhibition at 1 µM ([3]; 1000 nM): -2%
